What was measured:
[1] = biological target: T1, Human GPR40 (Homo sapiens, UniProt O14842); assay: FLIPR assay (agonist-induced calcium mobilization, GPR40/CHO NFAT BLA cells); assay type: cell-based; parameters: expressed in transfected cells
Method: (§1) Human and mouse GPR40 stable cell-lines were generated in CHO cells stably expressing NFAT BLA (Beta-lactamase). A human GPR40 stable cell-line was generated in HEK cells stably expressing the aequorin expressing reporter. The expression plasmids were transfected using lipofectamine (Life Technologies) following manufacturer's instructions. Stable cell-lines were generated following drug selection.
FLIPR (Fluorimetric Imaging Plate Reader, Molecular Devices) assays were performed to measure agonist-induced calcium mobilization of the stable clones. For the FLIPR assay, one day before assay, GPR40/CHO NFAT BLA cells were seeded into black-wall-clear-bottom 384-well plates (Costar) at 1.4×10e4 cells/20 μL medium/well. The cells were incubated with 20 μl/well of the assay buffer (HBSS, 0.1% BSA, 20 mM HEPES, 2.5 mM probenecid, pH 7.4) containing 8 μM fluo-4, AM, 0.08% pluronic acid at room temperature for 100 minutes. Fluorescence output was measured using FLIPR. Compounds were dissolved in DMSO and diluted to desired concentrations with assay buffer. 13.3 μL/well of compound solution was added.

[2] = biological target: T1, Human GPR40; assay: Inositol Phosphate Turnover Assay 1 (HEK cells stably expressing human GPR40); assay type: cell-based; parameters: expressed in transfected cells; host or cells: HEK cells stably expressing the aequorin reporter; details: HEK cells stably expressing human GPR40, 96-well, 3H-inositol; read-out: Human GPR40 IP1 Assay 1, EC50
Method: as §1
The assay was performed in 96-well format. HEK cells stably expressing human GPR40 were plated to be 60-80% confluent within 72 h. After 72 h, the plates were aspirated and the cells washed with inositol-free DMEM (ICN). The wash media was replaced with 150 μL of 3H-inositol labeling media (inositol-free media containing 0.4% human albumin or 0.4% mouse albumin, 1× pen/strep antibiotics, glutamine, 25 mM HEPES to which was added 3H-myo-inositol NEN #NET114A 1 mCi/mL, 25 Ci/mmol diluted 1:150 in loading media with a final specific radioactivity of 1 μCi/150 μL). Alternatively, the human and mouse albumin can be added after the overnight labeling step before the addition of LiCl.
The assay was typically run the next day after 18 h labeling. On the day of the assay, 5 μL of 300 mM LiCl was added to all wells and incubated at 37 degrees for 20 min. 0.75 μL of 200× compounds were added and incubated with the cells for 60 min at 37 degrees. The media was then aspirated off and the assay terminated with the addition of 60 μL 10 mM formic acid. The cells were lysed for 60 min at room temperature. 15-30 μL of lysate was mixed with 70 μL/1 mg YSi SPA beads (Amersham) in clear bottom Isoplates. The plates were shaken for 2 h at room temperature. Beads were allowed to settle and the plates were counted in the Wallac Microbeta.

T1 sequence (O14842 whole entry): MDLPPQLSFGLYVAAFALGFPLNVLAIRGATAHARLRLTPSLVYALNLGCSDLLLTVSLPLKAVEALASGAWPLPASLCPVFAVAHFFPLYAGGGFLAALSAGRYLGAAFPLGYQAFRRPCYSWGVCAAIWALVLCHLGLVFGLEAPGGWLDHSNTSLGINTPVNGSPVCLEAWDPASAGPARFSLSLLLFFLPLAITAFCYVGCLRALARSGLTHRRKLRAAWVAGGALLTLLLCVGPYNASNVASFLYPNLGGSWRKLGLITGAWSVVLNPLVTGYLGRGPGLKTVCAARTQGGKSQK

SMILES | EC50 [1] | EC50 [2]
CS(=O)(=O)N1CC2(CN(c3ccc(-c4cc(COc5cc6c(cn5)[C@H]5[C@@H](C6)[C@@H]5C(=O)O)c(F)cc4C(F)(F)F)c(F)c3)C2)C1 [Compound-4, (5aR,6S,6aS)-3-((2′,4-difluoro-4′-(6-(methylsulfonyl)-2,6-diazaspiro[3,3]heptan-2-yl)-6-(trifluoromethyl)-[1,1′-biphenyl]-3-yl)methoxy)-5,5a,6,6a-tetrahydrocyclopropa[4,5]-cyclopenta[1,2-c]pyridine-6-carboxylic acid] | 10 nM | 19 nM
CS(=O)(=O)N1CCC(c2ccc(-c3cc(COc4cc5c(cn4)[C@H]4[C@@H](C5)[C@@H]4C(=O)O)c(F)cc3C(F)(F)F)cc2)CC1 [Compound-5, (5aR,6S,6aS)-3-((4-fluoro-4′-(1-(methylsulfonyl)piperidin-4-yl)-6-(trifluoromethyl)-[1,1′-biphenyl]-3-yl)methoxy)-5,5a,6,6a-tetrahydrocyclopropa[4,5]cyclopenta[1,2-c]pyridine-6-carboxylic acid] | 4.2 nM | 13 nM
O=C(O)[C@H]1[C@@H]2Cc3cc(OCc4cc(-c5ccc(C6CCN(S(=O)(=O)C7CC7)CC6)cc5)c(C(F)(F)F)cc4F)ncc3[C@@H]21 [Compound-6, (5aR,6S,6aS)-3-((4′-(1-(cyclopropylsulfonyl)piperidin-4-yl)-4-fluoro-6-(trifluoromethyl)-[1,1′-biphenyl]-3-yl)methoxy)-5,5a,6,6a-tetrahydrocyclopropa[4,5]cyclopenta[1,2-c]pyridine-6-carboxylic acid] | 4.2 nM | 47 nM
Cn1nnc(-c2ccc(-c3cc(COc4cc5c(cn4)[C@H]4[C@@H](C5)[C@@H]4C(=O)O)c(F)cc3C(F)(F)F)c(F)c2)n1 [Compound-7, (5aR,6S,6aS)-3-((2′,4-difluoro-4′-(2-methyl-2H-tetrazol-5-yl)-6-(trifluoromethyl)-[1,1′-biphenyl]-3-yl)methoxy)-5,5a,6,6a-tetrahydrocyclopropa[4,5]cyclopenta[1,2-c]pyridine-6-carboxylic acid] | 6.7 nM | 3.4 nM
O=C(O)[C@H]1[C@@H]2Cc3cc(OCc4cc(-c5ccc(-c6ccc(Cl)cc6F)cc5F)c(C(F)(F)F)cc4F)ncc3[C@@H]21 [Compound-8, (5aR,6S,6aS)-3-((4″-chloro-2′,2″,4-trifluoro-6-(trifluoromethyl)-[1,1′:4′,1″-terphenyl]-3-yl)methoxy)-5,5a,6,6a-tetrahydrocyclopropa[4,5]cyclopenta[1,2-c]pyridine-6-carboxylic acid] | 12 nM | 63 nM
CC1(O)CCN(c2ccc(-c3cc(COc4cc5c(cn4)[C@H]4[C@@H](C5)[C@@H]4C(=O)O)c(F)cc3C(F)(F)F)c(F)c2)CC1 [Compound-11, (5aR,6S,6aS)-3-((2′,4-difluoro-4′-(4-hydroxy-4-methylpiperidin-1-yl)-6-(trifluoromethyl)-[1,1′-biphenyl]-3-yl)methoxy)-5,5a,6,6a-tetrahydrocyclopropa[4,5]cyclopenta[1,2-c]pyridine-6-carboxylic acid] | 5.6 nM | 6.8 nM
CC(C)(O)C1CCN(c2ccc(-c3cc(COc4cc5c(cn4)[C@H]4[C@@H](C5)[C@@H]4C(=O)O)c(F)cc3C(F)(F)F)c(F)c2)CC1 [Compound-12, (5aR,6S,6aS)-3-((2′,4-difluoro-4′-(4-(2-hydroxypropan-2-yl)piperidin-1-yl)-6-(trifluoromethyl)-[1,1′-biphenyl]-3-yl)methoxy)-5,5a,6,6a-tetrahydrocyclopropa[4,5]cyclopenta[1,2-c]-pyridine-6-carboxylic acid] | 6.1 nM | 20 nM
CC(C)(O)Cn1cc2c(n1)CN(c1ccc(-c3cc(COc4cc5c(cn4)[C@H]4[C@@H](C5)[C@@H]4C(=O)O)c(F)cc3C(F)(F)F)c(F)c1)C2 [Compound-13, (5aR,6S,6aS)-3-((2′,4-difluoro-4′-(2-(2-hydroxy-2-methylpropyl)pyrrolo[3,4-c]pyrazol-5(2H,4H,6H)-yl)-6-(trifluoromethyl)-[1,1′-biphenyl]-3-yl)methoxy)-5,5a,6,6a-tetrahydrocyclo-propa[4,5]cyclopenta[1,2-c]pyridine-6-carboxylic acid] | 6.7 nM | 15 nM

Reference: US10519115B2, “Antidiabetic tricyclic compounds” (Merck Sharp & Dohme Corp., priority 2013, dated 2019)
